Like-named read-outs stand apart in the source and are kept apart here. Blank lines part the entries; values can stand above or below the compound they belong to.
Assays:
[1] = molecular target: T1, Ab aggregates of AD brain homogenates (Homo sapiens, UniProt P05067); settings: [125I]IMPY, values marked as from refs (20), (6), (15); cited from earlier work
T1 construct: to Ab aggregates of AD brain homogenates; from tissue; host or cells: post-mortem grey matter of AD patients, homogenised in PBS
T1 sequence (P05067 672-713 limits assumed): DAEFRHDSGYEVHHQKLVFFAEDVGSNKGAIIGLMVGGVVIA

[2] = log of partition coefficient between 1-Octanol and buffer; compounds marked as from ref (20); cited from earlier work
[3] = Partition coefficients, 1-octanol/buffer; assay type: physicochemical; settings: log of partition coefficient between 1-Octanol and buffer (0.1 M phosphate, pH 7.4)
Procedure: Partition coefficients were measured by mixing the [^18F]tracer with 3 g each of 1-octanol and buffer (0.1 M phosphate, pH 7.4) in a test tube. The test tube was vortexed for 3 min at room temperature, followed by centrifugation for 5 min. Two weighed samples (0.5 g each) from the 1-octanol and buffer layers were counted in a well counter. The partition coefficient was determined by calculating the ratio of cpm/g of 1-octanol to that of buffer. Samples from the 1-octanol layer were re-partitioned until consistent partitions of coefficient values were obtained (usually the 3rd or 4th partition). The measurement was done in triplicate and repeated three times.

[4] = molecular target: T1, Ab aggregates of AD brain homogenates; assay: Inhibition of [125I]IMPY binding to Aβ aggregates of AD brain homogenates; set-up: species or system human (AD patients)
Procedure: Postmortem brain tissues were obtained from AD patients at autopsy, and neuropathological diagnosis was confirmed by current criteria (NIA-Reagan Institute Consensus Group, 1997). Homogenates were then prepared from dissected gray matters from AD patients in phosphate buffered saline (PBS, pH 7.4) at the concentration of approximately 100 mg wet tissue/ml (motor-driven glass homogenizer with setting of 6 for 30 sec).
(§1) Binding assays were carried out in 12×75 mm borosilicate glass tubes. […] The mixture was incubated at 37° C. for 2 hr and the bound and the free radioactivity were separated by vacuum filtration through Whatman GF/B filters using a Brandel M-24R cell harvester followed by 2×3 ml washes of PBS at room temperature. Filters containing the bound ^125I ligand were assayed for radioactivity content in a gamma counter (Packard 5000) with 70% counting efficiency.
as §1, with “efficiency. […] The results of inhibition experiments were subjected to nonlinear regression analysis using EBDA by which Ki values were calculated.” for “efficiency.”

[5] = Periodic HPLC injection of purified [18F]8b (second peak formation); assay type: physicochemical; settings: purified tracer injected periodically on HPLC after purification; attributed to E and Z isomers
Procedure: Radiolabeled [^18F]8b was prepared from the mesylate precursor in moderate radiochemical yield (23%) but unfortunately could not be prepared in good radiochemical purity. The formation of a second peak was evident within minutes of labeling. […] They attribute the formation of a second peak to the facile formation of E and Z isomers (30).
[^18F]8b from precursor 11: (HPLC conditions: Phenomenex Gemini C18 semi-prep column [(5.0×250 mm, 5 μm); Acetonitrile/water 60/40; flow rate 3 mL/min)
Retention time of ^18F-labeled product was 28.0 min., well separated from the major hydrolysis by-product (Rt=11.8 min.). The product was isolated in 23% radiochemical yield (decay corrected) and greater than 98% radiochemical purity. Purified [^18F]8b was injected periodically after purification. Formation of a second peak increased to 50% of the parent compound.

[6] = 1-octanol/buffer, read-out: logP

SMILES: CNc1ccc(/C=C/c2nc3ccc(OCCF)cc3o2)cc1 [BF-168, reference compound]
Ki [1]: 6.4 nM

SMILES: CNc1ccc(/C=C/c2ccc(OCCOCCF)cc2)cc1 [Compound 1a]
logP [2]: 2.53
Ki [1]: 2.9 ± 0.2 nM

SMILES: CNc1ccc(/C=C/c2ccc(OCCOCCOCCF)cc2)cc1 [Compound 1b]
logP [2]: 2.41
Ki [1]: 6.7 ± 0.3 nM

SMILES: CNc1ccc(/C=C/c2ccc(OCCOCCOCCOCCF)cc2)cc1 [Compound 1c]
logP [2]: 2.05
Ki [1]: 4.4 ± 0.8 nM

SMILES: CNc1ccc(/C=C/c2ccc(OCCOCCOCCOCCOCCF)cc2)cc1 [Compound 1d]
logP [2]: 2.27
Ki [1]: 6.8 ± 0.8 nM

logP [3, 6]: 3.04
Ki [4]: 2.2 ± 0.5 nM
SMILES: CNc1ccc(-c2nc3ccc(OCCOCCF)cc3s2)cc1 [Compound 5a, 2-[4′-(methylamino)phenyl]-6-[2-(2-fluoroethoxy)-ethoxy]benzothiazole]

logP [3, 6]: 3.04
Ki [4]: 3.8 ± 0.5 nM
SMILES: CNc1ccc(-c2nc3ccc(OCCOCCOCCF)cc3s2)cc1 [Compound 5b, 2-[4′-(methylamino)phenyl]-6-{2-[2-(2-fluoroethoxy)-ethoxy]ethoxy}benzothiazole]

logP [3, 6]: 2.99
Ki [4]: 4.7 ± 0.9 nM
SMILES: CNc1ccc(-c2nc3ccc(OCCOCCOCCOCCOCCOCCF)cc3s2)cc1 [Compound 5c, 2-[4′-(methylamino)phenyl]-6-{2-[2-(2-{2-[2-(2-fluoroethoxy)-ethoxy]ethoxy}ethoxy)ethoxy]ethoxy}benzothiazole]

Ki [4]: 9 ± 1.8 nM
SMILES: CNc1ccc(-c2nc3ccc(OCCOCCOCCOCCOCCOCCOCCOCCF)cc3s2)cc1 [Compound 5d, 2-[4′-(methylamino)phenyl]-6-[2-(2-{2-[2-(2-{2-[2-(2-fluoroethoxy)-ethoxy]ethoxy}ethoxy)ethoxy]ethoxy}ethoxy)ethoxy]benzothiazole]

Ki [4]: 12 ± 0.5 nM
SMILES: CN(C)c1ccc(C=Cc2nc3ccc(OCCF)cc3o2)cc1 [Compound 8a, 6-(2-fluoroethoxy)-[2-(4-dimethylaminophenyl)-vinyl]-benzooxazol]

logP [3, 6]: 2.93
Ki [4]: 14.5 ± 5 nM
SMILES: CN(C)c1ccc(C=Cc2nc3ccc(OCCOCCOCCF)cc3o2)cc1 [Compound 8b, 6-(2-(2-(2-fluoroethoxy)-ethoxy)-ethoxy)-[2-(4-dimethylaminophenyl)-vinyl]-benzooxazol]

Ki [4]: 10 ± 0.2 nM
SMILES: CN(C)c1ccc(/C=C/c2nc3ccc(OCCOCCOCCOCCOCCOCCF)cc3o2)cc1 [Compound 8c, 6-(2-(2-(2-(2-(2-(2-fluoroethoxy)-ethoxy)-ethoxy)-ethoxy)-ethoxy)-ethoxy)-[2-(4-dimethylaminophenyl)-vinyl]-benzooxazol]

Ki [4]: 6 ± 0.6 nM
SMILES: CN(C)c1ccc(C=Cc2nc3ccc(OCCOCCOCCOCCOCCOCCOCCOCCF)cc3o2)cc1 [Compound 8d, 6-(2-(2-(2-(2-(2-(2-(2-(2-fluoroethoxy)-ethoxy)-ethoxy)-ethoxy)-ethoxy)-ethoxy)-ethoxy)-ethoxy)-[2-(4-dimethylaminophenyl)-vinyl]-benzooxazol]

Ki [4]: 16 ± 2 nM
SMILES: CN(C)c1ccc(-c2cn3cc(OCCF)ccc3n2)cc1 [Compound 12a, 6-(2-fluoroethoxy)-2-(4-dimethylamino-)phenyl-imidazo [1,2-a]pyridine]

Ki [4]: 31 ± 9 nM
SMILES: CN(C)c1ccc(-c2cn3cc(OCCOCCF)ccc3n2)cc1 [Compound 12b, 6-(2-fluoroethoxy-ethoxy)-2-(4-dimethylamino-)phenyl-imidazo[1,2-a]pyridine]

logP [3, 6]: 2.69
Ki [4]: 30 ± 2.5 nM
SMILES: CN(C)c1ccc(-c2cn3cc(OCCOCCOCCF)ccc3n2)cc1 [Compound 12c, 6-(2-fluoroethoxy-ethoxy-ethoxy)-2-(4-dimethylamino-)phenyl-imidazo[1,2-a]pyridine]

Ki [4]: 96 ± 14 nM
SMILES: CN(C)c1ccc(-c2cn3cc(OCCOCCOCCOCCOCCOCCF)ccc3n2)cc1 [Compound 12d, 6-(2-fluoroethoxy-ethoxy-ethoxy-ethoxy-ethoxy-ethoxy)-2-(4-dimethylamino-)phenyl-imidazo[1,2-a]pyridine]

Ki [4]: 387 ± 12 nM
SMILES: CN(C)c1ccc(-c2cn3cc(OCCOCCOCCOCCOCCOCCOCCOCCF)ccc3n2)cc1 [Compound 12e, 6-(2-fluoroethoxy-ethoxy-ethoxy-ethoxy-ethoxy-ethoxy-ethoxy-ethoxy)-2-(4-dimethylamino-) phenyl-imidazo[1,2-a]pyridine]

logP [3, 6]: 2.19
SMILES: CN(C)c1ccc(-c2cn3cc(I)ccc3n2)cc1 [IMPY, 6-iodo-2-(4′-dimethylamino)phenyl-imidazo[1,2-a]pyridine, reference compound]

logP [3]: 2.36
SMILES: CNc1ccc(/C=C/c2ccc(O)cc2)cc1 [SB-13, reference compound]

Formation of a second peak, of the parent compound [5]: 50%
SMILES: CN(C)c1ccc(/C=C/c2nc3ccc(OCCOCCOCC[18F])cc3o2)cc1 [[^18F]8b]

From patent US20070031328A1, “Radiolabeled-pegylation of ligands for use as imaging agents” (priority 2005, published 2007)
